What is called melting point is the temperature of the solid-liquid transition.

The source of these data is a melting point compilation (Tetko et al.).

`COc1ccc2oc(C)c(C(=O)O)c2c1` yielded a melting point of 209 to 211 °C. `Clc1cc(-c2ccccc2)c2ccccc2n1` came in with a melting point of 85 to 89 °C. Consider `COCCNC(=S)NN`, for which the melting point lay within 85 to 87 °C. Then `NNC(=O)c1ccc(Cl)c(S(N)(=O)=O)c1`, with 212 to 214 °C. On to `O=C(COc1ccccc1)Nc1ccc(O)cc1C(=O)O`, for which the melting point was 254 to 256 °C.

In turn, `NS(=O)(=O)N1CCNCC1` had a melting point of 164 to 166 °C. Regarding `N#Cc1cc(N)ccc1Cl`, the melting point was in the range of 127 to 129 °C. Then `O=C(O)CCc1ccc(O)c(Cl)c1`, with 84 to 86 °C. `Fc1ccc(F)c2c(Cl)ccnc12` had a melting point of 154 to 156 °C.

`Nc1ccc(OCc2cn3ccccc3n2)cc1` returned a melting point of 146 to 148 °C. To `Cn1c(=O)c(CBr)nc2ccccc21` belongs 179 to 181 °C; to `Sc1nnc(C2CC2)s1`, 108 to 110 °C; to `O=C(NCCCN1CCCC1=O)OCC(F)(F)F`, 35 to 37 °C.

In turn, `O=C(O)c1ccn(-c2c(F)cccc2F)n1` registered a melting point of 179 to 181 °C. Turning to `O=C(O)C1C2C3CCC(C3)C12` (stereo not drawn), the melting point lay within 96 to 98 °C.

Compound `COC(=O)N1CCC(N)CC1` returned a melting point of 40 to 42 °C. Regarding `COc1cc(Cl)c(S(=O)(=O)Cl)cc1Cl`, the melting point was 76 to 78 °C. With `O=C(O)c1ccc(COCC(F)(F)F)cc1`, the melting point was in the range of 149 to 151 °C. `Cn1c(CC(=O)NN)nc2ccccc21` returned a melting point of 206 to 208 °C. Then `O=C(O)CCc1ccc(S(=O)(=O)N2CCCCCC2)cc1`, with 122 to 124 °C; and `Cc1ccc(NC(=O)C(C)Cl)c(F)c1` (stereo not drawn), with 105 to 107 °C. On to `Cc1cc(COc2ccc(C(=O)O)cc2Br)no1`, for which the melting point lay in the range of 200 to 202 °C. Then `O=C(O)c1ccccc1SCC(=O)N1CCCC1`, with 115 to 117 °C; and `O=C(O)c1cc2cccc(Br)c2o1`, with 256 to 258 °C; and `O=C(Cc1ccc(Cl)cc1)c1ccccc1`, with 131 to 135 °C. In turn, `Cc1nn(C)c2ncc(N)cc12` yielded a melting point of 84 to 86 °C. The compound `Cc1cc2cc(Br)ccc2s1` came in with a melting point of 69 to 71 °C.

In the case of `N#Cc1ccc(S(=O)(=O)NC2CC2)cc1`, the melting point was 99 to 101 °C. To `CC(NC(=O)c1cc(F)ccc1N)c1ccc(C#N)cc1` (stereo not drawn) belongs 139 to 141 °C. As for `CC(Cl)C(=O)Nc1ccc(Cl)c(C(F)(F)F)c1` (stereo not drawn), the melting point is 130 to 135 °C. Compound `CC(C)c1cc(Br)ccc1O` displayed a melting point of 48 to 50 °C. To `CC(C)Oc1ccc2ccccc2c1C=O` belongs 65 to 67 °C; to `Fc1cccc(-n2ccnc2)n1`, 87 to 89 °C. Regarding `COc1ccc(S(=O)(=O)NC(C)(C)C)c(CC(=O)O)c1`, the melting point fell in the range of 198 to 200 °C. `O=C1CCNc2ccc(C(=O)O)cc2N1` returned a melting point of 281 to 283 °C. For the compound `COC(=O)c1nc2ncc3c(n2n1)C(=O)OCC3`, the melting point was in the range of 197 to 199 °C.

Take `O=C(O)CNC(=O)CC(F)(F)F`: the melting point lay in the range of 122 to 124 °C. `COC(=O)c1ccccc1CCC(=O)O` displayed a melting point of 74 to 76 °C. `Cc1ccnc(NN)c1` returned a melting point of 74 to 76 °C.

Compound `CCOc1ccc(-c2nc(CCl)co2)cc1` returned a melting point of 102 to 104 °C. With `NC(=O)c1ccc(=O)[nH]n1`, the melting point was in the range of 326 to 328 °C. On to `COc1ccc(N)cc1OCc1ccc2ccccc2n1`, for which the melting point was 106 to 108 °C. For `CCN(CC)C(=O)c1cccc(O)c1`, the melting point lay in the range of 80 to 82 °C. Then `O=C(O)c1ccccc1OCc1ccc(Cl)cc1Cl`, with 162 to 164 °C. Then `ClCc1nnc(-c2ccc(Cl)cc2Cl)o1`, with 87 to 89 °C; and `O=[N+]([O-])c1ccc(Cl)c(Br)c1`, with 57 to 59 °C; and `Nc1cc(Cl)cc([N+](=O)[O-])c1O`, with 152 to 154 °C. Regarding `O=C(O)CCC(=O)N1CCC(c2ccccc2)=N1`, the melting point lay in the range of 182 to 184 °C. As to `NCc1ccc(N2CCN(c3ccccn3)CC2)nc1`, the melting point was 107 to 109 °C.

Regarding `O=Cc1ccc(OCCn2cc(C(=O)O)nn2)c(Cl)c1`, the melting point was in the range of 189 to 191 °C. Then `NC(CC(=O)O)C1CC1` (stereo not drawn), with 209 to 211 °C; and `COC(=O)CCOc1ccc(Cl)cc1Cl`, with 35 to 37 °C; and `Sc1nc(-c2cccnc2)no1`, with 179 to 181 °C.

In turn, `CCOC(=O)c1c[nH]cc(C)c1=O` displayed a melting point of 225 to 227 °C. As to `CC(Cl)C(=O)N1CC(=O)Nc2ccccc21` (stereo not drawn), the melting point is 139 to 141 °C.

Consider `O=C1CCC(=O)N1CC1CO1` (stereo not drawn), for which the melting point lay in the range of 61 to 63 °C. Then `CCC(Br)C(=O)c1ccc(NC(C)=O)cc1` (stereo not drawn), with 107 to 109 °C; and `Cc1nnc(-c2ccccc2F)o1`, with 37 to 39 °C; and `Nc1ccc(Cl)c(C(=O)NCc2ccccc2F)c1`, with 95 to 97 °C.

`Fc1ccc(-c2nc(CCl)co2)cc1F`: the melting point was 59 to 61 °C. Turning to `CCC(CC)(CNC(=O)OC(C)(C)C)C(=O)O`, the melting point is 130 to 132 °C. The compound `O=C(O)c1cccc(CN2CCS(=O)(=O)CC2)c1` yielded a melting point of 230 to 232 °C. Take `Nc1ccccc1C(=O)N1CCCC1`: the melting point fell in the range of 85 to 89 °C. As for `CCOC(=O)c1cn[nH]c1S(N)(=O)=O`, the melting point lay within 171 to 173 °C.

With `O=Cc1cc(O)c(O)c(Cl)c1`, the melting point was in the range of 234 to 236 °C.

For the compound `CCOC(=O)c1c(N)sc(C(=O)N(C)C)c1C`, the melting point was 118 to 122 °C. The compound `CC(C)(C)c1ccc(C(=O)O)s1` came in with a melting point of 119 to 121 °C. Turning to `Nc1cc(CCc2ccco2)no1`, the melting point was in the range of 67 to 69 °C.

Compound `Cn1ncc2c(Cl)nc(Cl)nc21` yielded a melting point of 86 to 88 °C.

Compound `O=C(O)Cc1csc(NC(=O)OCC(F)(F)F)n1` showed a melting point of 182 to 184 °C.

Take `Cc1cc(C=O)cc(C)c1OCc1ccccc1Cl`: the melting point is 58 to 60 °C.

`CS(=O)(=O)c1ccc(C(N)=NO)cc1` returned a melting point of 196 to 198 °C. `COC(=O)c1c(NC(=O)OC(C)(C)C)c[nH]c1C` registered a melting point of 109 to 111 °C.

`CC1CCC(NC2CCC(O)CC2)CC1` (stereo not drawn) gave a melting point of 143 to 145 °C. For `CN(C(=O)CSc1ccccc1C(=O)O)C1CCCCC1`, the melting point was 102 to 104 °C. `COC(=O)c1ccc(S(=O)(=O)Cl)c(C)c1` showed a melting point of 51 to 53 °C.

Consider `CC(C)NC(=O)c1ccc(Cl)cc1N`, for which the melting point fell in the range of 158 to 160 °C. `COc1cccc(-c2nnc(N)s2)c1` showed a melting point of 156 to 158 °C. `COc1cc(NC(=O)NN)c(OC)cc1Cl` gave a melting point of 168 to 170 °C. In the case of `FC(F)(F)c1ccc(C2CCCCN2)cc1` (stereo not drawn), the melting point is 36 to 38 °C.

`O=C(O)C12CC3CC(CC(F)(C3)C1)C2` had a melting point of 109 to 111 °C. To `CS(=O)c1c(N)cccc1Cl` (stereo not drawn) belongs 107 to 109 °C. Turning to `O=C(O)c1ccc(Cc2nnc[nH]2)cc1`, the melting point lay in the range of 219 to 221 °C. In turn, `COC(=O)c1sc2ncccc2c1N` yielded a melting point of 191 to 193 °C. In turn, `CCN(CC(=O)O)S(=O)(=O)c1cccnc1Cl` showed a melting point of 156 to 158 °C.

In the case of `Oc1ccc(OC2CCCCC2)cc1`, the melting point fell in the range of 63 to 65 °C. On to `O=C1NCC(=O)N2CCCCC12` (stereo not drawn), for which the melting point was 153 to 155 °C. In the case of `Cc1noc(C)c1S(=O)(=O)NC(C)C(=O)O` (stereo not drawn), the melting point lay in the range of 135 to 137 °C.
